Experiment in all cases: relative viability (nuclei count vs DMSO), 5 days (fraction); higher = more cells survive
Compound in experiment [1]: COc1cc2nccc(Oc3ccc(NC(=O)C4(C(=O)Nc5ccc(F)cc5)CC4)cc3)c2cc1OC [Cabozantinib] + CC(C)C[C@H](NC(=O)[C@H](Cc1ccccc1)NC(=O)c1cnccn1)B(O)O [Bortezomib] (partner 0.002 µM)
In short, it runs like this: (§1)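 Medians of duplicate plates are given as relative viability. That measure is the nuclei count in treated wells divided by the count in vehicle wells. Counts were taken on 4× images of lung cancer cell lines in 1536-well plates, 5 days after pin-tool dosing the day after seeding with one drug alone or a fixed anchor-drug dose plus five library-drug doses (not always all listed) in √10 steps.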

Compound in the experiment “Kobe2602 + Vorinostat”: C1=CC(=CC=C1NC(=S)NNC2=C(C=C(C=C2[N+](=O)[O-])C(F)(F)F)[N+](=O)[O-])F [Kobe2602] + O=C(CCCCCCC(=O)Nc1ccccc1)NO [Vorinostat] (partner 1 µM)
The essentials: as §1

Compound in the experiment “Zosuquidar + Bortezomib”: O[C@@H](COc1cccc2ncccc12)CN1CCN([C@@H]2c3ccccc3[C@@H]3[C@H](c4ccccc42)C3(F)F)CC1 [Zosuquidar] + CC(C)C[C@H](NC(=O)[C@H](Cc1ccccc1)NC(=O)c1cnccn1)B(O)O [Bortezomib] (partner 0.002 µM)
In short, it runs like this: as §1

Compound in the experiment “Zosuquidar + OSI-027”: O[C@@H](COc1cccc2ncccc12)CN1CCN([C@@H]2c3ccccc3[C@@H]3[C@H](c4ccccc42)C3(F)F)CC1 [Zosuquidar] + COc1cccc2cc(-c3nc([C@H]4CC[C@H](C(=O)O)CC4)n4ncnc(N)c34)[nH]c12 [OSI-027] (partner 0.5 µM)
The essentials: as §1

For UMC-11, the relative viability came out at 0.669 in experiment [1] (first compound 0.02 µM); 0.921 in experiment [1] (first compound 0.06325 µM); 0.709 in experiment [1] (first compound 0.2 µM); 0.649 in experiment [1] (first compound 0.6325 µM); 0.815 in experiment [1] (first compound 2 µM); 0.428 in the experiment with Kobe2602 + Vorinostat (first compound 0.2 µM). Also, the relative viability was found to be 0.39 with Kobe2602 + Vorinostat (first compound 0.6325 µM); 0.336 with Kobe2602 + Vorinostat (first compound 2 µM); 0.409 with Kobe2602 + Vorinostat (first compound 6.325 µM); 0.377 in the experiment with Kobe2602 + Vorinostat (first compound 20 µM); 0.654 with Zosuquidar + Bortezomib (first compound 0.01 µM); 0.715 with Zosuquidar + Bortezomib (first compound 0.03162 µM). The relative viability was determined as 0.676 with Zosuquidar + Bortezomib (first compound 0.1 µM); 1.06 with Zosuquidar + Bortezomib (first compound 0.3162 µM); 0.625 with Zosuquidar + Bortezomib (first compound 1 µM); 0.439 with Zosuquidar + OSI-027 (first compound 0.01 µM); 0.511 in the experiment with Zosuquidar + OSI-027 (first compound 0.03162 µM); 0.462 with Zosuquidar + OSI-027 (first compound 0.1 µM). The relative viability with Zosuquidar + OSI-027 (first compound 0.3162 µM) stood at 0.483; in the experiment with Zosuquidar + OSI-027 (first compound 1 µM), 0.501.

Values taken from the supplement of paper PMC10307832.
